The values below come from patent US20220195046A1, “METHODS OF TREATING TUMOR” (Bristol-Myers Squibb Company, priority 2019, published 2022).

The test system of series [1] is unresectable stage III or IV melanoma without a BRAF mutation. The experiment in a line: Clinical trial NCT01721772: nivolumab vs dacarbazine in previously untreated melanoma without BRAF mutation. In kind it is in vivo, human. The note with it: 3-year follow up, previously untreated BRAF wildtype advanced melanoma. The protocol: The present example reports data collected from two clinical trials: NCT01721772 and NCT01844505. In NCT01721772, 418 subjects with confirmed, unresectable, previously untreated stage III or IV melanoma without a BRAF mutation were randomly assigned in a 1:1 ratio to receive by means of intravenous infusion either 3 mg of nivolumab per kilogram of body weight every 2 weeks, plus a dacarbazine-matched placebo every 3 weeks (n=210, 206 treated), or 1000 mg of dacarbazine per square meter of body-surface area every 3 weeks, plus a nivolumab-matched placebo every 2 weeks (n=208, 205 treated). Randomization was stratified according to tumor PD-L1 status (positive vs. negative or indeterminate) and metastasis stage (M0, M1a, or M1b vs. M1c, defined according to the tumor-node-metastasis system of the American Joint Committee on Cancer and the International Union against Cancer).
The primary end point was overall survival. Secondary end points included investigator-assessed progression-free survival, objective response rate, tumor PD-L1 expression, and health related quality of life. Exploratory endpoints included safety, pharmacokinetics, and biomarker analysis.

Series [2] concerns unresectable stage III or IV melanoma. The experiment in a line: Clinical trial NCT01844505: nivolumab, nivolumab plus ipilimumab, or ipilimumab in previously untreated melanoma. In kind it is in vivo, human. To be noted: 4-year follow up, first-line, advanced melanoma. The protocol:
In NCT01844505, 945 previously untreated patients with unresectable stage III or IV melanoma were randomly assigned in a 1:1:1 ratio to receive one of the following regimens: (i) 3 mg of nivolumab per kilogram of body weight every 2 weeks (plus ipilimumab-matched placebo) (n=316, 313 treated); (ii) 1 mg of nivolumab per kilogram every 3 weeks plus 3 mg of ipilimumab per kilogram every 3 weeks for 4 doses, followed by 3 mg of nivolumab per kilogram every 2 weeks for cycle 3 and beyond (n=314, 313 treated); or 3 mg of ipilimumab per kilogram every 3 weeks for 4 doses (plus nivolumab-matched placebo) (n=315, 311 treated) (FIG. 14). Both nivolumab and ipilimumab were administered by means of intravenous infusion.
Randomization was stratified according to tumor PD-L1 status (positive vs. negative or indeterminate), BRAF mutation status (V600 mutation-positive vs. wild-type), and American Joint Committee on Cancer metastasis stage (M0, M1a, or M1b vs. M1c). Treatment continued until disease progression (as defined by RECIST, version 1.1), development of unacceptable toxic events, or withdrawal of consent.
Progression-free survival and overall survival were coprimary endpoints. Secondary endpoints included objective response rate, tumor PD-L1 expression, and health related quality of life. Exploratory endpoints included safety, pharmacokinetics, and biomarker analysis.

Series [3] relates to PD-L1, PD-1, T-cell markers (CD3, CD4, CD8, FOXP3), macrophage markers (CD68, CD163). The experiment in a line: IHC biomarker assessment of pretreatment HCC tumor samples vs BOR and overall survival (NCT01658878). More on the design: species or system human. To be noted: for Objective response rate, % (95% CI): BOR. The protocol: Pretreatment tumor samples (fresh or archival) were obtained from patients in the escalation and expansion phases receiving 3 mg/kg nivolumab (saved for IHC) or 0.1-10 mg/kg nivolumab (saved for RNA sequencing).
Samples were analyzed using (i) IHC to assess PD-L1, PD-1, T-cell markers (CD3, CD4, CD8, FOXP3), and macrophage markers (CD68, CD163); and (ii) RNA sequencing to assess tumor inflammatory signatures. Biomarkers were assessed for their association with clinical outcomes including BOR by blinded independent review committee (per RECIST v1.1) and overall survival. Analyses were performed using the standard Limma and Cox regression framework.

The conditions of series [4]: monotherapy, every two weeks; cited from earlier work.
Series [5] relates to advanced hepatocellular carcinoma (HCC). The experiment in a line: Clinical Trial NCT01658878: nivolumab in advanced hepatocellular carcinoma, SOR-naive and SOR-experienced cohorts 1 and 2. In kind it is in vivo, human. The protocol:
Cohort 1 comprised 80 SOR-naïve subjects, and Cohort 2 comprised 182 SOR-experienced subjects. Eleven subjects in Cohort 1 and 37 subjects in Cohort 2 were administered 0.1-10 mg/kg nivolumab as part of a dose-escalation analysis. Sixty-nine subject in Cohort 1 and 145 subjects in cohort 2 were administered 3 mg/kg nivolumab as part of a dose-expansion analysis. Following initial treatment, 154 subjects in Cohort 2 (9 subject from the dose-escalation study and 145 subjects from the dose-expansion study) were administered maintenance nivolumab at 3 mg/kg.
The primary endpoints of Clinical Trial NCT01658878 were safety and tolerability (dose-escalation) as well as objected response rate (ORR; dose-expansion). Secondary endpoints included ORR (dose-escalation), disease control rate, time to response, duration of response, and overall survival. Exploratory endpoints included biomarker assessments, which are discussed here. […]

[6] abbreviates: tumor cell PD-L1 <1%, SOR-experienced population n = 137.
Setting [7] is: tumor cell PD-L1 <1%, overall population (SOR-naïve and SOR-experienced) n = 195.
[8] abbreviates: tumor cell PD-L1 ≥1%, SOR-experienced population n = 137.
[9] abbreviates: tumor cell PD-L1 ≥1%, overall population (SOR-naïve and SOR-experienced) n = 195.

A value given as a limit tells only on which side of the number the result lay.

As for `CN(C)/N=N/c1[nH]cnc1C(N)=O` [dacarbazine], in series [1], the “ORR, % (95% CI)” value worked out at 14%; the “median OS, months (95% CI)” value was 11.2 (9.6-13.0) months; the “median PFS, months (95% CI)” value is reported as 2.2 (2.1-2.5) months.
Regarding ipilimumab, in series [2], the “ORRb, % (95% CI)” value was 19%; the “median OS, months (95% CI)” value is 19.9 (16.9-24.6) months; the “median PFS, months (95% CI)” value is given as 2.9 (2.8-3.2) months.
For nivolumab, in series [3] (setting [6]), the “Complete response, n (%)” value is listed as 4 (3.6) n (%); the “Partial response, n (%)” value is reported as 10 (9) n (%); the “Progressive disease, n (%)” value is given as 42 (38.1) n (%); the “Stable disease, n (%)” value is listed as 49 (44.5) n (%). Also, the “Objective response rate, % (95% CI)” value in series [3] (setting [6]) is recorded as 12.7 (7.6-20.3) %. In addition, in series [3] (setting [7]), the “Complete response, n (%)” value is 6 (3.7) n (%); the “Partial response, n (%)” value was 19 (11.9) n (%); the “Progressive disease, n (%)” value is listed as 59 (37.1) n (%); the “Stable disease, n (%)” value is listed as 66 (41.5) n (%). Besides, the “Objective response rate, % (95% CI)” value in series [3] (setting [7]) is 15.7 (10.8-22.2) %. Further, in series [3] (setting [8]), the “Complete response, n (%)” value was 1 (3.7) n (%); the “Partial response, n (%)” value is 6 (22.2) n (%); the “Progressive disease, n (%)” value is recorded as 10 (37) n (%); the “Stable disease, n (%)” value is on record as 8 (29.6) n (%). Besides, the “Objective response rate, % (95% CI)” value in series [3] (setting [8]) is 25.9 (12.9-44.9) %. Also, in series [3] (setting [9]), the “Complete response, n (%)” value was 2 (5.5) n (%); the “Partial response, n (%)” value is 8 (22.2) n (%); the “Progressive disease, n (%)” value is listed as 15 (41.6) n (%); the “Stable disease, n (%)” value is reported as 9 (25) n (%). Further, in series [3] (setting [9]), the “Objective response rate, % (95% CI)” value is listed as 27.7 (15.7-44.1) %. In series [2], the “ORRb, % (95% CI)” value is on record as 45%; the “median OS, months (95% CI)” value is 36.9 (28.3—NR) months; the “median PFS, months (95% CI)” value is listed as 6.9 (5.1-10.2) months. For the same compound, the “maximum tolerated dose (MTD), not reached at highest dose” value in series [4] was greater than 10 mg/kg. In addition, in series [1], the “ORR, % (95% CI)” value was determined as 43%; the “median OS, months (95% CI)” value was 37.5 (25.5—NR) months; the “median PFS, months (95% CI)” value was 5.1 (3.5-12.2) months. In addition, in series [5], the ORR was found to be 14.3% and the “subjects with duration of response (DOR) of at least 12 months” value is listed as 50%.
